{"source": "patent US20050250748A1", "about": "“Combination therapy of angiotensin converting enzyme inhibitor and eplerenone for treatment of cardiovascular disease” (G. D. Searle & Co., priority 1999, published 2005)", "key": {"[1]": {"settings": "at lower temperatures (below the enantiotropic transition temperature)"}, "hypertensive patients": {"system": "hypertensive patients", "settings": "despite continued ACE inhibition; cited from earlier work"}, "[2]": {"system": "patients with severe HF (NYHA Class IV)", "settings": "enalapril plus diuretics compared to placebo plus diuretics; cited from earlier work"}, "[3]": {"assay": "solubility of eplerenone in crystallization solvents", "format": "physicochemical", "settings": "organic solvent or mixture; room temperature; organic solvents used for crystallization"}, "[4]": {"system": "patients with stable NYHA Class II-IV heart failure", "assay": "Biological Evaluation I: randomized, double-blind, placebo and active drug-controlled 12-week trial of eplerenone with ACE inhibitor and loop diuretic", "settings": "for urinary aldosterone excretion, increase from baseline: 12 week visit; for plasma renin activity (PRA): drug therapy with ACE inhibitor and loop diuretic; for testosterone levels: in males"}, "[5]": {"system": "patients alive at Day 3 with Killip class >I", "settings": "patients randomized to lisinopril; ACE-I treatment stopped at 42 days, more than 50% continued long-term; cited from earlier work"}, "[6]": {"system": "patients with impaired ejection fraction post AMI", "settings": "cited from earlier work"}, "[7]": {"system": "patients with clinical evidence of HF at any time after an AMI", "settings": "cited from earlier work; for risk reduction in all cause mortality compared to placebo: p=0.002"}, "[8]": {"system": "patients with severe HF (NYHA Class III or IV)", "settings": "cited from earlier work"}, "[9]": {"system": "patients afflicted with congestive heart failure", "settings": "coadministered with an ACE inhibitor; cited from earlier work"}, "animal models": {"system": "animal models", "settings": "cited from earlier work"}, "hypertensive-rat cohort": {"system": "hypertensive-rat cohort", "settings": "spironolactone subcutaneously; cited from earlier work"}, "[10]": {"system": "patients with LV dysfunction 2 to 6 days following MI", "settings": "cited from earlier work"}, "[11]": {"system": "patients with myocardial infarction", "settings": "patients with myocardial infarction receiving zofenopril; cited from earlier work"}}, "note": "Where two headings read alike, the source gives them in different places.", "data": [{"compound": "COC(=O)[C@@H]1CC2=CC(=O)CC[C@]2(C)[C@@]23O[C@@H]2C[C@@]2(C)[C@@H](CC[C@@]24CCC(=O)O4)[C@H]13", "note": "[Form L]", "values": [{"measurement": "physical stability relative to Form H", "setting": "[1]", "result": "greater physical stability"}]}, {"compound": "C[C@H](CS)C(=O)N1CCC[C@H]1C(=O)O", "note": "[captopril]", "values": [{"measurement": "plasma aldosterone", "setting": "hypertensive patients", "result": "gradual return of plasma aldosterone to baseline levels"}]}, {"compound": "CCOC(=O)[C@H](CCc1ccccc1)N[C@@H](C)C(=O)N1CCC[C@H]1C(=O)O", "note": "[enalapril]", "values": [{"measurement": "mortality at one year reduced", "setting": "[2]", "result": 31, "unit": "%"}]}, {"compound": "COC(=O)[C@@H]1CC2=CC(=O)CC[C@]2(C)[C@@]23O[C@@H]2C[C@@]2(C)[C@@H](CC[C@@]24CCC(=O)O4)[C@H]13", "note": "[eplerenone, Pregn-4-ene-7,21-dicarboxylic acid, 9,11-epoxy-17-hydroxy-3-oxo-, γ-lactone, methyl ester, (7^α, 11^α, 17^α)-]", "values": [{"measurement": "solubility", "setting": "[3]", "result": "5 to 200", "unit": "mg/mL"}, {"measurement": "urinary aldosterone excretion, increase from baseline", "setting": "[4]; 25 mg eplerenone QD, P>0.05", "result": "did not reach statistical significance"}, {"measurement": "plasma renin activity (PRA)", "setting": "[4]", "result": "significantly elevated"}, {"measurement": "reduction in BNP", "setting": "[4]; eplerenone at 25 mg, all patients", "result": "highly significant"}, {"measurement": "reduction in BNP", "setting": "[4]; eplerenone at 100 mg, all patients", "result": "highly significant"}, {"measurement": "urinary aldosterone excretion, increase from baseline", "setting": "[4]; eplerenone dose of 50 mg", "result": "Greater increases"}, {"measurement": "urinary aldosterone excretion, increase from baseline", "setting": "[4]; eplerenone dose of 100 mg", "result": "Greater increases"}, {"measurement": "testosterone levels", "setting": "[4]", "result": "lack of effect"}, {"measurement": "reduction in BNP", "setting": "[4]; patients with high baseline BNP levels", "result": "even greater"}]}, {"compound": "NCCCC[C@H](N[C@@H](CCc1ccccc1)C(=O)O)C(=O)N1CCC[C@H]1C(=O)O", "note": "[lisinopril]", "values": [{"measurement": "first-year mortality", "setting": "[5]", "result": 22, "unit": "%"}]}, {"compound": "CCOC(=O)[C@H](CCc1ccccc1)N[C@@H](C)C(=O)N1[C@H](C(=O)O)C[C@@H]2CCC[C@@H]21", "note": "[ramipril]", "values": [{"measurement": "ventricular dilatation and decline of systolic dysfunction", "setting": "[6]", "result": "prevented ventricular dilatation and further decline of systolic dysfunction"}, {"measurement": "first-year mortality rate in the active (ACE-I) arm", "setting": "[7]; AIRE", "result": 16, "unit": "%"}, {"measurement": "risk reduction in all cause mortality compared to placebo", "setting": "[7]; AIRE", "result": 27, "unit": "%"}, {"measurement": "reduction in the risk of developing severe resistant HF compared to placebo", "setting": "[7]; AIRE, p=0.017", "result": 23, "unit": "%"}, {"measurement": "risk reduction in all cause mortality compared to placebo", "setting": "[7]; AIREX long-term (three year) follow-up", "result": 36, "unit": "%"}]}, {"compound": "CC(=O)S[C@@H]1CC2=CC(=O)CC[C@]2(C)[C@H]2CC[C@@]3(C)[C@@H](CC[C@@]34CCC(=O)O4)[C@H]12", "note": "[spironolactone]", "values": [{"measurement": "ventricular dilatation and decline of systolic dysfunction", "setting": "[6]", "result": "prevented ventricular dilatation and further decline of systolic dysfunction"}, {"measurement": "reduction in mortality compared to placebo", "setting": "[8]; as restated in the sample size discussion", "result": "> 30", "unit": "%"}, {"measurement": "risk reduction for all cause mortality", "setting": "[8]; spironolactone 25 mg daily added to standard therapy (ACE-I and loop diuretic, with or without digoxin) vs standard therapy plus placebo, p<0.001", "result": 30, "unit": "%"}, {"measurement": "lower frequency of hospitalization for worsening HF than placebo patients", "setting": "[8]; spironolactone 25 mg daily added to standard therapy", "result": 35, "unit": "%"}, {"measurement": "median increase in serum potassium concentration compared to placebo", "setting": "[8]; spironolactone added to standard therapy", "result": "statistically but not clinically significant"}, {"measurement": "patients in whom highly effective", "setting": "[9]", "result": "13 of 16"}, {"measurement": "myocardial fibrosis", "setting": "animal models", "result": "prevents myocardial fibrosis"}, {"measurement": "myocardial fibrosis", "setting": "animal models; listed as Spironolactone", "result": "prevent fibrosis in animal models irrespective of the development of left ventricular hypertrophy and the presence of hypertension"}, {"measurement": "fibrosis", "setting": "hypertensive-rat cohort", "result": "prevent fibrosis"}, {"measurement": "plasma renin activity (PRA)", "setting": "[4]", "result": "significantly elevated"}, {"measurement": "testosterone levels", "setting": "[4]", "result": "significant increase"}]}, {"compound": "CCOC(=O)[C@H](CCc1ccccc1)N[C@@H](C)C(=O)N1[C@H](C(=O)O)C[C@H]2CCCC[C@@H]21", "note": "[trandolapril]", "values": [{"measurement": "first-year mortality rate in the active (ACE-I) arm", "setting": "[10]; TRACE", "result": 23, "unit": "%"}, {"measurement": "relative reduction in the risk of death compared to placebo", "setting": "[10]; p=0.001", "result": 18, "unit": "%"}, {"measurement": "reduction in the risk of progression to severe HF compared to placebo", "setting": "[10]; p=0.003", "result": 29, "unit": "%"}]}, {"compound": "C[C@H](CSC(=O)c1ccccc1)C(=O)N1C[C@@H](Sc2ccccc2)C[C@H]1C(=O)O", "note": "[zofenopril]", "values": [{"measurement": "plasma aldosterone", "setting": "[11]", "result": "A similar effect"}]}]}
